The target of assay [1] is TIP60-KAT5 (Homo sapiens, UniProt Q92993). Briefly: Acetyltransferase biochemical assay (AlphaScreen), KAT5. (In Alpha technology, singlet oxygen from a donor bead excites a nearby acceptor bead.)
Assay [2] addresses HBO-KAT7 (Homo sapiens, UniProt O95251). Briefly: Acetyltransferase biochemical assay (AlphaScreen), KAT7.
The target of assay [3] is MOZ-KAT6A (Homo sapiens, UniProt Q92794, A567V). The assay can be described thus: Acetyltransferase biochemical assay (AlphaScreen), KAT6A.

Our source for the IC50 values is US12365655B2, “Compounds” (CTXT PTY LTD, priority 2018, dated 2025).

Chain of TIP60-KAT5 (Q92993 with tags, fused parts or gaps isoform Q92993-2): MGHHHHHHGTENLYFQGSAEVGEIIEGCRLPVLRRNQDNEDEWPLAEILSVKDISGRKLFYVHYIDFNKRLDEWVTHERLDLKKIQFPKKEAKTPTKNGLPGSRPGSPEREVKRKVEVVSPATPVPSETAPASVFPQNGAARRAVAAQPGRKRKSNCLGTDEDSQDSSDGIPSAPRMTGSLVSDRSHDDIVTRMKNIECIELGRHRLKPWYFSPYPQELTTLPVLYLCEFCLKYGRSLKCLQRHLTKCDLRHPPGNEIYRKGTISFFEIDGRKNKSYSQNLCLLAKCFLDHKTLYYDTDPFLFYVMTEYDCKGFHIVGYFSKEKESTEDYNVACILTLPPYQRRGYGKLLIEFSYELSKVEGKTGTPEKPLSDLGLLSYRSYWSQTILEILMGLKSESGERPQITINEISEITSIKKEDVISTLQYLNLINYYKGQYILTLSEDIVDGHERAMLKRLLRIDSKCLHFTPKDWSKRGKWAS
Chain of MOZ-KAT6A (Q92794 with tags, fused parts or gaps A567V): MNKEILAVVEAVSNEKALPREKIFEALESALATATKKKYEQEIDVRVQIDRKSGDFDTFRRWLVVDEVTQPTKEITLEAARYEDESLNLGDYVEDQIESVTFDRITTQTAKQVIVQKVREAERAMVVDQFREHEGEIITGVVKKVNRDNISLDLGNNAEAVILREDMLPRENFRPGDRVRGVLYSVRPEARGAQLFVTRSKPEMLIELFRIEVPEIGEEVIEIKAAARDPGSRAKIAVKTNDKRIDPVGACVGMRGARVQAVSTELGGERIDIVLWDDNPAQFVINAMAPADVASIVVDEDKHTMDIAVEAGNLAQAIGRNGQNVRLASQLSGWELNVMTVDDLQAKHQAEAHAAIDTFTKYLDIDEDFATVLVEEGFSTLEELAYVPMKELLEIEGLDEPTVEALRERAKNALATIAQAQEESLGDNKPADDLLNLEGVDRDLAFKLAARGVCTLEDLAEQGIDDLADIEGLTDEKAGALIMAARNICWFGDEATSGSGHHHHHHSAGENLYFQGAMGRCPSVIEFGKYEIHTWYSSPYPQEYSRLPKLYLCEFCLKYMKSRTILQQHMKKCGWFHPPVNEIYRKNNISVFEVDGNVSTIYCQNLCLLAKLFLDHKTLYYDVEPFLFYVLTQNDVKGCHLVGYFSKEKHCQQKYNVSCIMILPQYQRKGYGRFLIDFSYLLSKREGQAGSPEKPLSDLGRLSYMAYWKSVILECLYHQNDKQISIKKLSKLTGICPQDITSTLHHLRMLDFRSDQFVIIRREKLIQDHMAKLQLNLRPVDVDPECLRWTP
Chain of HBO-KAT7 (O95251 with tags, fused parts or gaps): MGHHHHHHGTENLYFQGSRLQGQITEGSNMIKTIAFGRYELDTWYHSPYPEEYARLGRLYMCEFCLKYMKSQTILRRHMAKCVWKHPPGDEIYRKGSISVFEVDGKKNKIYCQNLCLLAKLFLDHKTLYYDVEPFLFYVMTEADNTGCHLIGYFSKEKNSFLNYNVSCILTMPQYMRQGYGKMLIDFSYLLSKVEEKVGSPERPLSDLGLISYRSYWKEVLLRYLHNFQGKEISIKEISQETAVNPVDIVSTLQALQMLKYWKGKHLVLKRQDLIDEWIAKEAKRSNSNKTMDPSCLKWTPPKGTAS

Regarding `CCc1ccc(OC)c(S(=O)(=O)Nc2noc3cccc(C(F)(F)F)c23)c1` [Example 121, 5-Ethyl-2-methoxy-N-(4-(trifluoromethyl)benzo[d]isoxazol-3-yl)benzenesulfonamide], the IC50 in assay [1] came to 29 µM; in assay [2] it was 5.21 µM; in assay [3], 1.24 µM.

As for `O=S(=O)(Nc1noc2cccc(Cl)c12)c1cccc2cccnc12` [Example 123, N-(4-chlorobenzo[d]isoxazol-3-yl)quinoline-8-sulfonamide], the IC50 stood at 59.4 µM in assay [1], 4.2 µM in assay [2] and 26.9 µM in assay [3].

As for `O=S(=O)(Nc1noc2cccc(Cl)c12)c1cccc2ccccc12` [Example 124, N-(4-Chlorobenzo[d]isoxazol-3-yl)naphthalene-1-sulfonamide], the IC50 in assay [1] worked out at 27.9 µM; in assay [2], 13 µM; in assay [3], 11 µM.

With `CCc1ccc(OC)c(S(=O)(=O)Nc2noc3cc(-n4ccnn4)ccc23)c1` [Example 125], the IC50 in assay [1] is greater than 125 µM; in assay [2], 85.8 µM; in assay [3] it was 24.5 µM.

Turning to `CCc1ccc(OC)c(S(=O)(=O)Nc2noc3cc(-c4ncccn4)ccc23)c1` [Example 126, 5-Ethyl-2-methoxy-N-(6-(pyrimidin-2-yl)benzo[d]isoxazol-3-yl)benzenesulfonamide], the results for the IC50 in assay [1], in assay [2] and in assay [3] were 51.3 µM, 28.9 µM and 10.5 µM, respectively.

In the case of `O=S(=O)(Nc1noc2cccc(Cl)c12)c1cc(Br)cc2c1OCC2` [Example 127, 5-bromo-N-(4-chlorobenzo[d]isoxazol-3-yl)-2,3-dihydrobenzofuran-7-sulfonamide], the half-inhibitory concentration (IC50) in assay [1] stood at 49.7 µM; in assay [2] it was 9.49 µM; in assay [3], 9.16 µM.

On to `CCc1ccc(OC)c(S(=O)(=O)Nc2noc3ccc(Br)c(Cl)c23)c1` [Example 128, N-(5-bromo-4-chlorobenzo[d]isoxazol-3-yl)-5-ethyl-2-methoxy benzenesulfonamide], for which the IC50 in assay [1] is 6.3 µM; in assay [2], 0.618 µM; in assay [3], 0.25 µM.

As for `CCc1ccc(OC)c(S(=O)(=O)Nc2noc3cccc(Br)c23)c1` [Example 129], the IC50 in assay [1] amounted to 18.5 µM; in assay [2] it was 1.32 µM; in assay [3] it was 0.772 µM.

Take `CCc1ccc(OC)c(S(=O)(=O)Nc2noc3cc(-n4nccn4)ccc23)c1` [Example 130]: the IC50 in assay [1] was greater than 125 µM; in assay [2] it was 21.7 µM; in assay [3], 2.96 µM.

Turning to `CCc1ccc(OC)c(S(=O)(=O)Nc2noc3cc(-n4cccn4)ccc23)c1` [Example 131], the IC50 in assay [1] was 69.7 µM; in assay [2] it was 23.8 µM; in assay [3], 3.11 µM.

Take `CCc1ccc(OC)c(S(=O)(=O)Nc2noc3c(OCC4CC4)cccc23)c1` [Example 133]: the IC50 is 45.7 µM in assay [1], 5.34 µM in assay [2] and 4.45 µM in assay [3].

Regarding `CCc1ccc(OC)c(S(=O)(=O)Nc2noc3cc(OCC4CC4)ccc23)c1` [Example 134], the IC50 in assay [1] was 51.5 µM; in assay [2], 27.6 µM; in assay [3] it was 6.45 µM.

`CCc1ccc(OC)c(S(=O)(=O)Nc2noc3ccc(Br)cc23)c1` [Example 135]: the IC50 worked out at 4.79 µM in assay [1], 1.43 µM in assay [2] and 0.563 µM in assay [3].

Take `CCc1ccc(OC)c(S(=O)(=O)Nc2noc3c(-c4ncccn4)cccc23)c1` [Example 136, 5-Ethyl-2-methoxy-N-(7-(pyrimidin-2-yl)benzo[d]isoxazol-3-yl)benzenesulfonamide]: the IC50 in assay [1] is greater than 125 µM; in assay [2], 28.3 µM; in assay [3], 34.3 µM.

In the case of `CCc1ccc(OC)c(S(=O)(=O)Nc2noc3c(Br)cccc23)c1` [Example 137], the results for the IC50 in assay [1], in assay [2] and in assay [3] were 14.2 µM, 6.56 µM and 8.58 µM, respectively.

In the case of `CCc1ccc(OC)c(S(=O)(=O)Nc2noc3cc(Br)ccc23)c1` [Example 138], the concentration for half-maximal inhibition (IC50) came out at 5.11 µM in assay [1], 3.68 µM in assay [2] and 2.89 µM in assay [3].

Take `CCOc1ccc2c(NS(=O)(=O)c3cc(CC)ccc3OC)noc2c1` [Example 139]: the results for the IC50 in assay [1], in assay [2] and in assay [3] were 34.3 µM, 10 µM and 2.14 µM, respectively.

As to `CCc1ccc(OC)c(S(=O)(=O)Nc2noc3cc(-c4ccccn4)ccc23)c1` [Example 140, 5-Ethyl-2-methoxy-N-(6-(pyridin-2-yl)benzo[d]isoxazol-3-yl)benzenesulfonamide], the 50% inhibitory concentration (IC50) in assay [1] was 47.8 µM; in assay [2], 9.9 µM; in assay [3] it was 2.26 µM.

With `COc1cc(Br)ccc1S(=O)(=O)Nc1noc2ccccc12` [Example 141], the IC50 in assay [1] is greater than 125 µM; in assay [2], 24.3 µM; in assay [3], 39.6 µM.

Turning to `COc1cccc(OC)c1S(=O)(=O)Nc1noc2c(-c3ccccc3)ccc(OC)c12` [Example 142, 2,6-Dimethoxy-N-(4-methoxy-7-phenylbenzo[d]isoxazol-3-yl)benzenesulfonamide], the IC50 in assay [1] amounted to 32.2 µM; in assay [2], 1.16 µM; in assay [3], 3.3 µM.

As to `CCc1ccc(OC)c(S(=O)(=O)Nc2noc3ccc(Cl)cc23)c1` [Example 150], the IC50 in assay [1] was 50 µM; in assay [2], 8.04 µM; in assay [3], 4.97 µM.

As to `CCc1ccc(OC)c(S(=O)(=O)Nc2noc3c(F)cccc23)c1` [Example 152], the IC50 in assay [1] was 38.9 µM; in assay [2] it was 9.87 µM; in assay [3], 6.28 µM.

In the case of `CCc1ccc(OC)c(S(=O)(=O)Nc2noc3ccc(C)c(Cl)c23)c1` [Example 153], the half-maximal inhibitory concentration (IC50) in assay [1] stood at 4.05 µM; in assay [2], 0.507 µM; in assay [3], 0.437 µM.

For `COc1ccccc1S(=O)(=O)Nc1noc2cccc(F)c12` [Example 156], the concentration for half-maximal inhibition (IC50) in assay [1] is greater than 125 µM; in assay [2] it was 1.97 µM; in assay [3], 1.54 µM.

As for `COc1ccccc1S(=O)(=O)Nc1noc2cc(Br)ccc12` [Example 157], the IC50 in assay [1] is greater than 125 µM; in assay [2], 15.5 µM; in assay [3], 23 µM.

For the molecule `COc1ccccc1S(=O)(=O)Nc1noc2cc(Cl)ccc12` [Example 158], the IC50 in assay [1] was greater than 125 µM; in assay [2] it was 44.9 µM; in assay [3], 62.6 µM.

`O=S(=O)(Nc1noc2cccc(Cl)c12)c1cccc2ccncc12` [Example 159, N-(4-chlorobenzo[d]isoxazol-3-yl)isoquinoline-8-sulfonamide]: the IC50 in assay [1] was greater than 125 µM; in assay [2], 37.6 µM; in assay [3], 66.6 µM.

As for `COCc1cc(OC)c2c(NS(=O)(=O)c3c(OC)cccc3OC)noc2c1I` [Example 160], the figures for the IC50 in assay [1], in assay [2] and in assay [3] were 46.2 µM, 1.58 µM and 1.05 µM, respectively.

As for `COc1ccc(S(=O)(=O)Nc2noc3cc(CO)ccc23)c(OC)c1` [Example 167], the IC50 worked out at 32.2 µM in assay [1], 6.85 µM in assay [2] and 8.67 µM in assay [3].

Turning to `COc1ccc(S(=O)(=O)Nc2noc3cc(C#N)c(C)cc23)c(OC)c1` [Example 169], the IC50 in assay [1] came to 63.2 µM; in assay [2] it was 8.65 µM; in assay [3], 24.8 µM.

In the case of `CCc1ccc(OC)c(S(=O)(=O)Nc2noc3cc(-c4ccccc4)ccc23)c1` [Example 179, 5-Ethyl-2-methoxy-N-(6-phenylbenzo[d]isoxazol-3-yl)benzenesulfonamide], the IC50 was 32.1 µM in assay [1], 13.5 µM in assay [2] and 2.86 µM in assay [3].

In the case of `O=S(=O)(Nc1noc2cccc(Cl)c12)c1cccc2c1OCC2` [Example 180, N-(4-Chlorobenzo[d]isoxazol-3-yl)-2,3-dihydrobenzofuran-7-sulfonamide], the half-inhibitory concentration (IC50) in assay [1] was 25.5 µM; in assay [2], 1.76 µM; in assay [3] it was 9.44 µM.

As to `CCc1cc2c(c(S(=O)(=O)Nc3noc4cccc(Cl)c34)c1)OCC2` [Example 181, N-(4-Chlorobenzo[d]isoxazol-3-yl)-5-ethyl-2,3-dihydrobenzofuran-7-sulfonamide], the IC50 in assay [1] amounted to 23.8 µM; in assay [2], 5.14 µM; in assay [3], 1.06 µM.

Consider `CCc1ccc(S(=O)(=O)Nc2noc3ccccc23)c(OC)c1` [Example 182], for which the IC50 in assay [1] came to 65.6 µM; in assay [2] it was 15.6 µM; in assay [3] it was 15.2 µM.

Regarding `COc1cc(-c2ccccc2)ccc1S(=O)(=O)Nc1noc2ccccc12` [Example 183, N-(Benzo[d]isoxazol-3-yl)-3-methoxy-[1,1-biphenyl]-4-sulfonamide], the results for the 50% inhibitory concentration (IC50) in assay [1], in assay [2] and in assay [3] were 33.2 µM, 4.48 µM and 5.6 µM, respectively.

On to `CCc1ccc(OC)c(S(=O)(=O)Nc2noc3c(C(=O)NC)cccc23)c1` [Example 184, 3-(5-Ethyl-2-methoxyphenylsulfonamido)-N-methylbenzo[d]isoxazole-7-carboxamide], for which the 50% inhibitory concentration (IC50) is greater than 125 µM in assay [1], 31 µM in assay [2] and greater than 125 µM in assay [3].

With `CCc1ccc(OC)c(S(=O)(=O)Nc2noc3c(C(=O)N(C)C)cccc23)c1` [Example 185, 3-(5-Ethyl-2-methoxyphenylsulfonamido)-N,N-dimethylbenzo[d]isoxazole-7-carboxamide], the IC50 in assay [1] was greater than 125 µM; in assay [2] it was 60.7 µM; in assay [3] it was 105 µM.

As to `CCc1ccc(OC)c(S(=O)(=O)Nc2noc3c(CO)cccc23)c1` [Example 186], the IC50 worked out at 84.7 µM in assay [1], 47.1 µM in assay [2] and 25.2 µM in assay [3].

For `CCc1ccc(OC)c(S(=O)(=O)Nc2noc3c(C)cccc23)c1` [Example 187, 5-Ethyl-2-methoxy-N-(7-methylbenzo[d]isoxazol-3-yl)benzenesulfonamide], the figures for the IC50 in assay [1], in assay [2] and in assay [3] were 65.3 µM, 22 µM and 5.66 µM, respectively.

Regarding `CCc1ccc(OC)c(S(=O)(=O)Nc2noc3c(CC)cccc23)c1` [Example 188], the results for the IC50 in assay [1], in assay [2] and in assay [3] were 69.9 µM, 40.1 µM and 9.23 µM, respectively.

One may read the IC50 as the concentration at which inhibition is half-maximal. A lower IC50 goes with greater potency in that assay.
